Measured values published in US20110300198A1, “HYDROCOLLOID - ESSENTIAL OIL PATCHES” (priority 2010, published 2011).
Where “and” joins values, the source holds several entries; their conditions need not be identical. Equal entries are not always repeated. Where two headings read alike, the source gives them in different places. Marks after values point to notes of the source that are not given here.

Legend:
[1] = Ex-vivo transfer of essential-oil constituents through the skin in Franz diffusion cells; format: in vitro ADME, rat; settings: for Accumulated concentration transferred through the skin: from gum karaya-Lavandula angustifolia essential oil patch (7.5% oil); for Accumulated concentration diffused through the skin: mixture of Lavandula angustifolia essential oil and almond oil rubbed on the skin
Procedure: Ex-vivo release studies were performed in Franz diffusion cells (FCs) (PermeGear, Hellertown, Pa.). Stomach skin pieces (1.2 cm×1.2 cm) from a male rat, which were stored in the freezer for 1 month, were thawed at room temperature and placed in glass FCs. The surface area for absorption was 0.64 cm2. The FCs were thermoregulated with a water jacket at 32° C. The 4.5-ml volume of the receptor chamber of the FC was filled with a receptor solution containing 5% (w/v) bovine serum albumin (BSA) diluted with phosphate buffer pH 7.4. […] The receptor solution was continuously agitated with a magnetic stirrer. During the experiments, the donor compartments and sampling arms were sealed to prevent evaporation. The fluid in the receptor chamber was removed after different periods of time (0, 6, 12, 24, 36 and 48 h) and replaced with fresh phosphate buffer solution. Samples were stored at 4° C. after sampling, prior to analysis. Samples were analyzed in a gas chromatograph (Agilent Technologies, Santa Clara, Calif.) with a WAX 30 m×0.32 mm×0.25 μm (Agilent) column.
Transdermal delivery of essential-oil components through rat skin from both lavender essential oil, which includes a high proportion of terpenoids, and Valencia orange essential oil, which includes a considerable amount of terpene, entrapped within gum-karaya-based patches, was examined. In addition to the regular patch adhered to the skin to be tested for essential-oil delivery by the traditional FCs and by in vivo tests (detailed below), another experiment was performed in which the skin was smeared with an almond-essential oil mixture, in order to partially imitate the situation in which the skin is massaged in an aromatherapy session. All experiments were conducted at ambient temperature and the inclusion of the essential oil as part of the almond oil-essential oil mixture (for the massage-like simulation) was equal in quantity and proportion to the inclusion of essential oil within the patch.

[2] = cited from earlier work
[3] = Preliminary in-vivo experiment, constituents in blood (GC, WAX column); set-up: species or system rat
[4] = cited from earlier work; remark: listed apart in the source
[5] = Extraction of lavender essential oil constituents from the skin after patch application; format: in vivo; settings: male, Sprague-Dawley, rat, 7.5 % lavender oil in patch, skin under 7.5% lavender oil patch, removed after 60 h, read-out: Concentration extracted from the skin
Text: Male Sprague-Dawley rats, weighing 300-350 g, were used in the studies (Harlan, Rehovot, Israel). The experimental protocols were approved by the Hebrew University of Jerusalem Committee on the Use and Care of Animals. Rats were maintained under specified-pathogen-free (SPF) conditions and were allowed to acclimate to the environment for at least 7 days before their use in the study. Rats were anesthetized and the fur on their stomach shaved prior to exposure. Gum karaya patches with and without lavender essential oil were applied to the rat's stomach skin. Each rat was housed in an individual cage in order to prevent oral contamination of the essential oil by one rat eating another's patch. Blood samples (0.5 ml) were taken at 0, 12, 24, 36, 48 and 60 h from a nick at the tip of tail to determine contents of essential-oil components. Rats were restrained and the tail was gently massaged to facilitate blood collection. Blood samples were collected in vials containing 0.1 ml heparin (100 kU, Sigma). […] Urine samples were similarly analyzed by gas chromatography (GC).
Skin to which patches with or without lavender essential oil were adhered were sampled for extraction. […] When a control patch was adhered to the skin, no constituents of lavender essential oil were detected. […]

## C=CC(C)(O)CCC=C(C)C (stereo not drawn) [Linalool]
[1]; Almond-lavandula mixture, 0 h
  % diffused (of initial amount of entrapped essential oil): 0.00^a %
[1]; Almond-lavandula mixture, 6 h
  % diffused (of initial amount of entrapped essential oil): 1.29 ± 1.53^a %
[1]; Almond-lavandula mixture, 12 h
  % diffused (of initial amount of entrapped essential oil): 2.01 ± 2.09^a %
[1]; Almond-lavandula mixture, 24 h
  % diffused (of initial amount of entrapped essential oil): 3.93% and 3.93 ± 0.01^a %
[1]; Lavandula patch, 0 h
  % diffused (of initial amount of entrapped essential oil): 0.00^a %
[1]; Lavandula patch, 6 h
  % diffused (of initial amount of entrapped essential oil): 0.73 ± 0.16^b %
[1]; Lavandula patch, 12 h
  % diffused (of initial amount of entrapped essential oil): 1.53 ± 0.03^c %
[1]; Lavandula patch, 24 h
  % diffused (of initial amount of entrapped essential oil): 2.74 ± 0.31^d %
[1]; 6 h
  Accumulated concentration transferred through the skin: 16.49 ± 2.81^a mg/L
  Accumulated concentration diffused through the skin: 31.07 ± 36.72^a mg L^−1
[1]; 12 h
  Accumulated concentration transferred through the skin: 34.46 ± 1.20^b mg/L
  Accumulated concentration diffused through the skin: 48.34 ± 50.41^a mg L^−1
[1]; 24 h
  Accumulated concentration transferred through the skin: 61.64 ± 3.83^c mg/L
  Accumulated concentration diffused through the skin: 94.78 ± 0.19^a mg L^−1
[1]; rubbing in a mixture with almond oil
  Calculated steady-state flux: 0.027 mg.cm^−2 h^−1
[1]; transferred from a lavender essential oil patch
  Calculated steady-state flux: 0.018 mg.cm^2 h^−1
[2]
  Log P: about 3
[3]; 30 min after rubbing the skin with almond-lavender essential oil mixture
  Highest concentration in blood: 0.32 mg/L
[3]; 36 h after a 7.5% lavender essential oil patch was adhered to the abdomen
  Highest concentration in blood: 0.48 mg/L
[3]; after rubbing the skin with the almond-essential oil mixture
  Time for which the constituent was evident in the blood: 80 min
[4]
  Solubility in water: relatively high
[5]; skin (ethanol extract of the application site), topical
  concentration at 60 h: 62 ng/mL

## C=CC(C)(CCC=C(C)C)OC(C)=O (stereo not drawn) [Linalyl acetate]
[1]; Almond-lavandula mixture, 0 h
  % diffused (of initial amount of entrapped essential oil): 0.00^a %
[1]; Almond-lavandula mixture, 6 h
  % diffused (of initial amount of entrapped essential oil): 0.107 ± 0.150^a %
[1]; Almond-lavandula mixture, 12 h
  % diffused (of initial amount of entrapped essential oil): 0.153 ± 0.216^a %
[1]; Almond-lavandula mixture, 24 h
  % diffused (of initial amount of entrapped essential oil): 0.246 ± 0.344^a %
[1]; Lavandula patch, 0 h
  % diffused (of initial amount of entrapped essential oil): 0.00^a %
[1]; Lavandula patch, 6 h
  % diffused (of initial amount of entrapped essential oil): 0.008 ± 0.011^a %
[1]; Lavandula patch, 12 h
  % diffused (of initial amount of entrapped essential oil): 0.013 ± 0.018^a %
[1]; 6 h
  Accumulated concentration transferred through the skin: 0.15 ± 0.14^a mg/L
  Accumulated concentration diffused through the skin: 2.30 ± 2.24^a mg L^−1
[1]; 12 h
  Accumulated concentration transferred through the skin: 0.26 ± 0.25^a mg/L
  Accumulated concentration diffused through the skin: 3.33 ± 3.23^a mg L^−1
[1]; 24 h
  Accumulated concentration transferred through the skin: 0.37 ± 0.01^a mg/L
  Accumulated concentration diffused through the skin: 5.62 ± 4.10^a mg L^−1
[2]
  Log P: about 4
[3]; after rubbing with the almond-lavender oil mixture (massage)
  Detection in blood: No linalyl acetate was detected
[4]
  Solubility in water: relatively low
[5]; in vivo, ethanol extract
  concentration at 60 h: 241 ng/mL
